Source: patent US4975445A, “Substituted cyclohexenes as central nervous system agents” (priority 1989, dated 1990)
Like-named read-outs stand apart in the source and are kept apart here.

Columns and labels:
mice = assay: Inhibition of locomotor activity in mice (McLean et al.); format: in vivo; conditions: Mus musculus, read-out: Inhibition of Locomotor Activity in Mice ED50
Method: (§1) The compounds of Formula I are valuable dopaminergic agents. […] Thus, the compounds of Formula I were tested for their ability to inhibit locomotor activity in mice according to the assay described by J. R. McLean, et al, Pharmacoloqy, Biochemistry and Behavior, Volume 8, pages 97-99 (1978); for their ability to inhibit [^3 H]-spiroperidol binding in a receptor assay described by D. Grigoriadis and P. Seeman, Journal of Neurochemistry, Volume 44, Pages 1925-1935 (1985); and for their ability to inhibit dopamine synthesis in rats according to the protocol described by J. R. Walters and R. H. Roth, Naunyn-Schmiedeberg's Archives of Pharmacology, Volume 296, pages 5-14 (1976). The above test methods are incorporated herein by reference. The data in the table show the dopaminergic activity of representative compounds of Formula I. Additionally, compounds of Formula I are ligands for the sigma opiate binding site. The data in the table show the inhibition of [^3 H]DTG ([…], a sigma ligand) binding by representative compounds of Formula I, according to the method of E. Weber, et al. Proceedings of the National Academy of Sciences, USA, Volume 83, Pages 8784-8788 (1986).

[1] = target: [^3 H]-Spiroperidol binding (receptor); assay: Inhibition of [3H]-spiroperidol binding (receptor assay, Grigoriadis and Seeman)
Method: as §1

[2] = system: Brain Striatal Dopamine Synthesis; assay: Inhibition of brain striatal dopamine synthesis in rats (Walters and Roth); format: in vivo; conditions: Rattus norvegicus, IP, read-out: Effects on Brain Striatal Dopamine Synthesis in Rats, inhibition
Method: as §1

[3] = target: sigma opiate binding site; assay: Inhibition of [3H]DTG (ditoluoylguanidine) binding (Weber et al.)
Method: as §1

| IC50 [1] | IC50 [3] | Compound | ED50 (mice; mice, IP) | inhibition at 10 mg/kg [2] | ED50 (mice; ip) |
| --- | --- | --- | --- | --- | --- |
| 352 nM | – | C1=C(c2cccs2)CCC(N2CCN(c3ccccn3)CC2)C1 (racemic) [Example 2, (±)-1-(2-Pyridinyl)-4-[4-(2-thienyl)-3-cyclohexen-1-yl]-piperazine] | 9.3 mg/kg | – | – |
| 2430 nM | – | C1=C(c2cccs2)CCC(CN2CCN(c3ccccn3)CC2)C1 (racemic) [Example 2b, (±)-1-(2-Pyridinyl)-4-[[4-(2-thienyl)-3-cyclohexen-1-yl]methyl]-piperazine] | < 30 mg/kg | – | – |
| 267 nM | 98 nM | C1=C(c2nccs2)CCC(CCN2CCN(c3ccccn3)CC2)C1 (racemic) [Example 2f, (±)-1-(2-Pyridinyl)-4-[2-[4-(2-thiazolyl)-3-cyclohexen1-yl]-ethyl]piperazine] | 0.8 mg/kg | 77% | – |
| 188 nM | – | C1=C(c2cccnc2)CCC(N2CCN(c3ccccn3)CC2)C1 (racemic) [Example 1, (±)-1-(2-Pyridinyl)-4-[4-(3-pyridinyl)-3-cyclohexen-1-yl]piperazine] | 0.1 mg/kg | 100% | – |
| 365 nM | 20 nM | Fc1ccc(C2=CCC(CCN3CCN(c4ccccn4)CC3)CC2)cc1 (racemic) [Example 2e, (±)-1-[2-[4-(4-Fluorophenyl)-3-cyclohexen-1-yl]ethyl]-4-(2-pyridinyl)piperazine] | 2.9 mg/kg | 23% | – |
| 128 nM | 39 nM | C1=C(c2ccccn2)CCC(CCN2CCN(c3ccccn3)CC2)C1 (racemic) [Example 1b, (±)-1-(2-Pyridinyl)-4-[2-[4-(2-pyridinyl)-3-cyclohexen-1-yl]ethyl]piperazine] | 0.4 mg/kg | – | – |
| 599 nM | – | C1=C(c2ccccc2)CCC(N2CCN(c3ccccn3)CC2)C1 (racemic) [Example 2a, (±)-1-(4-Phenyl-3-cyclohexen-1-yl)-4-(2-pyridinyl)piperazine] | 1 mg/kg | – | – |
| – | 39 nM | C1=C(c2cccs2)CCC(CCN2CCN(c3ccccn3)CC2)C1 (racemic) [Example 2c, (±)-1-(2-Pyridinyl)-4-[2-[4-(2-thienyl)-3-cyclohexen-1-yl]ethyl]-piperazine] | 8.4 mg/kg | 46% | – |
| 1180 nM | – | C1=C(c2ccccn2)CCC(N2CCN(c3ccccn3)CC2)C1 (racemic) [Example 1a, (±)-1-(2-Pyridinyl)-4-[4-(2-pyridinyl)-3-cyclohexen-1-yl]-piperazine] | 0.9 mg/kg | 75% | – |
| 409 nM | 23 nM | C1=C(c2ccccc2)CCC(CCN2CCN(c3ccccn3)CC2)C1 (racemic) [Example 2d, (±)-1-[2-(4-Phenyl-3-cyclohexen-1-yl)ethyl]-4-(2-pyridinyl)piperazine] | 1.9 mg/kg | 48% | – |

| Compound | IC50 [1] | IC50 [3] | ED50 (mice; mice, IP) | inhibition at 10 mg/kg [2] | ED50 (mice; ip) |
| --- | --- | --- | --- | --- | --- |
| C1=C(c2ccccc2)CCN(C2CC=C(c3ccccn3)CC2)C1 (racemic) [Example 3, (±)-2-[4-(3,6-Dihydro-4-phenyl-1(2H)-pyridinyl)-1-cyclohexen-1-yl]pyridine] | 296 nM | – | – | – | 2 mg/kg |
| C1=C(c2ccccc2)CCN(CCC2CC=C(c3cccs3)CC2)C1 (racemic) [Example 2g, (±)-1,2,3,6-Tetrahydro-4-phenyl-1-[2-[4-(2-thienyl)-3-cyclohexen-1-yl]ethyl]pyridine] | 32 nM | 2 nM | – | – | 3 mg/kg |
